Eleven compounds from patent US10723699B2 (Hyundai Pharm Co., Ltd., priority 2015, dated 2020) can be followed below.

Like-named read-outs stand apart in the source and are kept apart here.

The experiment addresses T1, G protein-coupled receptor 119 (GPR-119) (Mesocricetus auratus, UniProt A0A1U8CD06).
T1 construct: hamster-derived β-cells containing G protein-coupled receptor 119 (GPR-119), HIT-T15 cells; host or cells: HIT-T15 (hamster pancreatic β-cells)
T1 sequence (A0A1U8CD06 1-334): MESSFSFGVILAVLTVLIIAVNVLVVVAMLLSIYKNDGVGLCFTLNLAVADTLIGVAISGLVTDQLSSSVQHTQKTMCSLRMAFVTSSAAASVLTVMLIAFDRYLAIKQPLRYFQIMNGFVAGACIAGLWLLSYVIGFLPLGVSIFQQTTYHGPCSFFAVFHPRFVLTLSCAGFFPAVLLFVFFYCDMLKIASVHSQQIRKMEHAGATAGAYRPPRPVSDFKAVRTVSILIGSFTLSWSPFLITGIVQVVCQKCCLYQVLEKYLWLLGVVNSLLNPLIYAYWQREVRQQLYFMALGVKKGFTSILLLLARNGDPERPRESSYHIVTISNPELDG
Description: cAMP activity in HIT-T15 cells (cAMP dynamic kit, FRET). It is filed as cell-based, hamster. Put shortly: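 Hamster HIT-T15 cells (60,000/well) were treated next day with compound at six concentrations, 0.0032–10 μM, for 1 h at 37° C. Cells were then lysed and cAMP measured by competitive HTRF immunoassay (D2-cAMP, cryptate anti-cAMP). Activity was derived as the change in FRET signal relative to DMSO.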

Setting [1] is: 1 hour at 37° C., six concentrations 0.0032 to 10 μM, read-out: EC50.

Turning to `CCc1cnc(N2CCC(COc3ccc(C4=CCC(C(=O)N5CCCC5)CC4)cc3F)CC2)nc1` (centres unmarked) [Example 293, (4-(4-((1-(5-ethylpyrimidin-2-yl)piperidin-4-yl)methoxy)-3-fluorophenyl)cyclohex-3-enyl)(pyrrolidin-1-yl)methanone], the EC50 is, setting by setting: under setting [1], 18 nM; (Table 2, read-out: EC50 value) ≤ 50 nM. As for `CCc1cnc(N2CCC(COc3ccc(C4=CCC(C(=O)N5CCCCC5)CC4)cn3)CC2)nc1` (centres unmarked) [Example 350, (4-(6-((1-(5-ethylpyrimidin-2-yl)piperidin-4-yl)methoxy)pyridin-3-yl)cyclohex-3-enyl)(piperidin-1-yl)methanone], the EC50 under setting [1] was 52 nM.

For `CCc1cnc(N2CCC(COc3ccc(C4=CCC(C(=O)NCCF)CC4)cc3F)CC2)nc1` (centres unmarked) [Example 322, 4-(4-((1-(5-ethylpyrimidin-2-yl)piperidin-4-yl)methoxy)-3-fluorophenyl)-N-(2-fluoroethyl)cyclohex-3-enecarboxamide], the EC50 under setting [1] was determined as 62 nM.

As to `CC(C)c1noc(N2CCC(COc3ccc(C4=CCC(C(=O)N5CCC(CCO)CC5)CC4)cn3)CC2)n1` (centres unmarked) [Example 320, (4-(2-hydroxyethyl)piperidin-1-yl)(4-(6-((1-(3-isopropyl-1,2,4-oxadiazol-5-yl)piperidin-4-yl)methoxy)pyridin-3-yl)cyclohex-3-enyl)methanone], the EC50 under setting [1] stood at 53 nM. Still for that read-out and setting: then `CCN1CCN(C(=O)C2CC=C(c3ccc(OCC4CCN(c5nc(C(C)C)no5)CC4)c(F)c3)CC2)CC1` (centres unmarked) [Example 346, (4-ethylpiperazin-1-yl)(4-(3-fluoro-4-((1-(3-isopropyl-1,2,4-oxadiazol-5-yl)piperidin-4-yl)methoxy)phenyl)cyclohex-3-enyl)methanone], with 100 nM.

On to `CCc1cnc(N2CCC(COc3ccc(C4=CCC(C(=O)N5CCC(CO)CC5)CC4)cc3C#N)CC2)nc1` (centres unmarked) [Example 391, 2-((1-(5-ethylpyrimidin-2-yl)piperidin-4-yl)methoxy)-5-(4-(4-(hydroxymethyl)piperidine-1-carbonyl)cyclohex-1-enyl)benzonitrile], for which the EC50 is 27 nM under setting [1] and ≤ 50 nM (Table 2, read-out: EC50 value). For `CCc1cnc(N2CCC(COc3ccc(C4=CCC(C(=O)N5CCSCC5)CC4)c(F)c3)CC2)nc1` (centres unmarked) [Example 423, (4-(4-((1-(5-ethylpyrimidin-2-yl)piperidin-4-yl)methoxy)-2-fluorophenyl)cyclohex-3-enyl)(thiomorpholino)methanone], the EC50 was 19 nM under setting [1] and ≤ 50 nM (Table 2, read-out: EC50 value). In the same order, the values of `CCc1cnc(N2CCC(COc3ccc(C4=CCC(C(=O)N5CCCCC5)CC4)cc3C#N)CC2)nc1` (centres unmarked) [Example 385, 2-((1-(5-ethylpyrimidin-2-yl)piperidin-4-yl)methoxy)-5-(4-(piperidine-1-carbonyl)cyclohex-1-enyl)benzonitrile] are 45 nM and ≤ 50 nM.

For the compound `CC(C)c1noc(N2CCC(COc3ccc(C4=CCC(C(=O)N5CCSCC5)CC4)c(F)c3)CC2)n1` (centres unmarked) [Example 449, (4-(2-fluoro-4-((1-(3-isopropyl-1,2,4-oxadiazol-5-yl)piperidin-4-yl)methoxy)phenyl)cyclohex-3-enyl)(thiomorpholino)methanone], the EC50 is 33 nM under setting [1] and ≤ 50 nM (Table 2, read-out: EC50 value). Consider `CCc1cnc(N2CCC(COc3ccc(C4=CCC(C(=O)NCCO)CC4)cc3F)CC2)nc1` (centres unmarked) [Example 313, 4-(4-((1-(5-ethylpyrimidin-2-yl)piperidin-4-yl)methoxy)-3-fluorophenyl)-N-(2-hydroxyethyl)cyclohex-3-enecarboxamide], for which the EC50 under setting [1] worked out at 120 nM.

In the case of `CCc1cnc(N2CCC(COc3ccc(C4=CCC(C(=O)NCCO)CC4)cc3F)CC2)nc1` (single isomer, unassigned; (-)) [Example 441, (−)-4-(4-((1-(5-ethylpyrimidin-2-yl)piperidin-4-yl)methoxy)-3-fluorophenyl)-N-(2-hydroxyethyl)cyclohex-3-enecarboxamide], the EC50 is, setting by setting: under setting [1], 33 nM; (Table 2, read-out: EC50 value) ≤ 50 nM.
